Measured values as given in ChEMBL document CHEMBL1132867, “A rationally designed anticancer drug targeting a unique binding cavity of tubulin” (Bioorg Med Chem Lett, 2000).
pIC50: −log10 of the molar value.

Assays:
[1] = system: NALM-6; assay: Anti-proliferative activity of compound against human leukemia NALM-6 by standard MTT assay; format: functional, cell-based
[2] = system: PC-3; assay: Anti-proliferative activity of compound against human prostate cancer PC-3 by standard MTT assay; format: functional, cell-based; settings: PC-3, Prostate gland
[3] = system: U-87 MG; assay: Anti-proliferative activity of compound against human glioblastoma tumor cell line U87 by standard MTT assay; format: functional, cell-based, U-87MG ATCC
[4] = system: SQ20B; assay: Anti-proliferative activity of compound against human head/neck cancer SQ20B by standard MTT assay; format: functional, cell-based
[5] = system: MDA-MB-231; assay: Anti-proliferative activity of compound against human breast cancer MDA-MB-231 by standard MTT assay; format: functional, cell-based

Structure (SMILES)	pIC50 [1]	pIC50 [2]	pIC50 [3]	pIC50 [4]	pIC50 [5]
O=S(=O)(CC[C@@H](O)[C@H]1CC[C@H](COCc2ccccc2)O1)c1ccccc1 [WHI-262]	< 3.60	< 3.60	< 3.60	< 3.60	< 3.60
OC[C@H]1CC[C@H]([C@@H](O)CO)O1 [WHI-259]	< 3.60	< 3.60	< 3.60	< 3.60	< 3.60
CCCCCCCCCCCC[C@@H](O)[C@H]1CC[C@H](CO)O1 [WHI-261]	4.31	3.77	3.97	3.85	5.15
C[C@@H](O)[C@H]1CC[C@H](CO)O1 [WHI-260]	< 3.60	< 3.60	< 3.60	< 3.60	< 3.60
